By viability, T/C is commonly meant the result in the treated group divided by that in the control group, in per cent. A word on the IC50: it is the concentration that gives 50% inhibition.

The assay has as its system 454973-116-R2-J3-PDC spheroids, percent test/control viability. The assay is described as follows: Anticancer human tumor 454973-116-R2-J3-PDC patient-derived pancreatic carcinoma cell line growth inhibition [CLK]. As to conditions: spheroids with HUVEC and MSC; for viability, T/C: stronger effect = lower value; for IC50: curve of compound. From the text:
A high-throughput screen of multi-cell type tumor spheroids was designed to identify active combinations of […] and targeted small molecules. Complex spheroids include a stromal component modeled by human endothelial cells (HUVEC) and fibroblasts modeled by human mesenchymal stem cells (MSCs). The concentration ranges selected for each drug and investigational agent were based upon clinically achievable concentrations if the clinical Cmax of the agent was known.
Compounds. The drugs and investigational agents: cirtuvivint (SM08502; NSC835563), CC-671 (NSC850746), vemurafenib (NSC761431), tapotoclax (NSC804041), sotorasib (NSC818433), adagrasib (NSC831453), MRTX-1133 (NSC836407), BAY2416964 (NSC825713), copanlisib (NSC816437), inavolisib (NSC800729), abemaciclib (NSC768073), osimertinib (NSC779217), entinostat (NSC756642), eltanexor (KPT-8602, NSC794443), venetoclax (NSC766270), ceralasertib (NSC777638), bortezomib (NSC756655), olaparib (NSC753686), talazoparib (NSC767125), alisertib (NSC759677), peposertib (NSC802822), gemcitabine (NSC613327), 5-fluorouracil (NSC19893), SN-38 (NSC673596), oxaliplatin (NSC266046), paclitaxel (NSC125973), and doxorubicin (NSC123127), were obtained from the National Cancer Institute (NCI) Developmental Therapeutics Program Chemical Repository. The FDA-approved anticancer drug set is available from the Developmental Therapeutics Program at https://dtp.cancer.gov/organization/dscb/obtaining/available plates.htm. […] The stock solutions were prepared in dimethyl sulfoxide (DMSO, Sigma-Aldrich, St. Louis, MO, cat. D2650), except for the platinum complexes which were prepared in saline (Quality Biological, Gaithersburg, MD, cat. 114-055-101), at 800-fold the tested concentration and stored at -70 degrees C prior to their use. All drugs and investigational agents were tested over a range starting from a high concentration at or near the clinical Cmax and decreasing in half-log increments. If the clinical Cmax for an agent had not been determined, the highest concentration tested was 10 microM.
Cell Culture. All cells were maintained in an incubator at 37 degrees C and 5% CO2 with 95% humidity. The PDC lines were cultured according to standard operating procedures established by the NCI PDMR. Briefly, all PDCs were thawed and cultured in Matrigel-coated flasks prepared with a working solution of 1X Ham's F-12 nutrient mix, without supplementation (Invitrogen, Waltham, MA, cat. 11765054), 100 U/mL penicillin-streptomycin (Invitrogen, cat. 15140122), and 2.5% Matrigel (Corning Inc., Corning, NY, cat. 354248) for the first three passages. The 947758-054-R-J2-PDC line was cultured in 6B/Colon 1A media, which includes advanced DMEM/F-12 (Thermo Fisher Scientific, cat. 12634028), 10 mM HEPES (Thermo Fisher Scientific, cat. 15630080), 1X GlutaMAX supplement (Thermo Fisher Scientific, cat. 35050061), 0.1 mg/mL primocin (InvivoGen, cat. ant-pm-2), 10% defined fetal bovine serum, heat inactivated (HyClone Laboratories Inc., cat. SH30070.03HI), 1.25 mM N-Acetyl-L-cysteine (Sigma-Aldrich, cat. A9165), 10 mM nicotinamide (Sigma-Aldrich, cat. N0636), 1X B-27 supplement (Thermo Fisher Scientific, cat. 17504044), 1X N-2 supplement (Thermo Fisher Scientific, cat. 17502048), and 10 microM Y-27632 dihydrochloride (Tocris Bioscience, cat. 1254). The 876862-298-R-J1-PDC was cultured in 6E media, which includes all 6B/Colon 1A media components plus 50% L-WRN conditioned media (ATCC, cat. CRL-3276), 50 ng/mL recombinant human EGF recombinant protein (hEGF; Thermo Fisher Scientific, cat. PHG0311), 10 ng/mL recombinant human fibroblast growth factor 10 (hGFG-10; PeproTech, cat. 100-26), 1 ng/mL recombinant human fibroblast growth factor 2 (hFGF-2; PeproTech, cat. 100-18B), and 1 µM prostaglandin E2 (PGE2; Tocris, cat. 2296). The 227483-062-R1-J1-PDC line was cultured in Panc media, containing all 6E components except hFGF-2, with the addition of 500 nM SB-431542 (Selleckchem, cat. S1067) and 10 nM gastrin (Tocris, cat. 3006). […]

Values joined by “and” are separate entries in the source; they are usually repeats but may differ in a detail not shown here. Equal entries are not always repeated.
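Also: spheroids exposed to compounds for 7 days before readout.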

As to `CC1COCCN1c1cc(C2(S(C)(=N)=O)CC2)nc(-c2ccnc3[nH]ccc23)n1` (stereo unspecified), the IC50 is 7.77 µM and 7.34 µM. Further, under “compound 0.0316 µM”, the viability, T/C was 109% and 101%. Also, the viability, T/C (compound 0.1 µM) was 109% and 97.7%. Moreover, the viability, T/C (compound 0.316 µM) is 104% and 102%. Further, the viability, T/C (compound 1 µM) is 101% and 98%. In addition, the viability, T/C (compound 3.16 µM) is 91.1% and 87.8%. Further, the viability, T/C (compound 10 µM) is 38.4% and 36.1%.
Take `COC1C=CCC(C)C(C)S(=O)(=O)NC(=O)c2ccc3c(c2)N(CC2CCC21)CC1(CCCc2cc(Cl)ccc21)CO3` (stereo unspecified): the half-maximal inhibitory concentration (IC50) is 5.92 µM and 5.07 µM. Moreover, the viability, T/C (compound 0.0316 µM) is 109% and 95.4%. Also, the viability, T/C (compound 0.1 µM) was 103% and 97.3%. Further, the viability, T/C (compound 0.316 µM) was 95.6% and 90.4%. Also, the viability, T/C (compound 1 µM) is 94.7%. Also, the viability, T/C (compound 3.16 µM) was 99.9% and 80.9%. The viability, T/C (compound 10 µM) is 8.41% and 5.61%.
On to `COc1ccc([C@@H](O)c2cc(-c3ncnc4cc(N5CCOCC5)ccc34)c(F)cc2Cl)nn1`, for which the IC50 was over 10 µM. The viability, T/C (compound 0.0316 µM) is 105% and 114%. Further, the viability, T/C (compound 0.1 µM) was 108% and 102%. Moreover, where the note is “compound 0.316 µM”, the viability, T/C is 95.4% and 102%. Further, the viability, T/C (compound 1 µM) is 92% and 89.2%. In addition, under “compound 3.16 µM”, the viability, T/C was 82.7% and 77.8%. For the same compound, the viability, T/C (compound 10 µM) is 54.3% and 51%.
In the case of `COc1cccc2c1C(=O)c1c(O)c3c(c(O)c1C2=O)CC(O)(C(=O)CO)CC3OC1CC(N)C(O)C(C)O1` (stereo unspecified), the concentration for half-maximal inhibition (IC50) was 0.0423 µM and < 0.0316 µM. Also, the viability, T/C (compound 0.0316 µM) is 58.7% and 49.7%. Moreover, the viability, T/C (compound 0.1 µM) was 23% and 19.8%. The viability, T/C (compound 0.316 µM) is 21.2% and 19.8%. Where the note is “compound 1 µM”, the viability, T/C is 6.76% and 3.88%. For the same compound, the viability, T/C (compound 3.16 µM) was 0.39% and 1.8%. In addition, the viability, T/C (compound 10 µM) is 2.07% and 3.53%.
`Nc1ccccc1NC(=O)c1ccc(CNC(=O)OCc2cccnc2)cc1`: the IC50 was 1.8 µM and 1.68 µM. In addition, the viability, T/C (compound 0.0316 µM) was 103% and 100%. The viability, T/C (compound 0.1 µM) is 96.6% and 102%. Moreover, the viability, T/C (compound 0.316 µM) was 90.7% and 89.4%. The viability, T/C (compound 1 µM) is 71.8% and 70.5%. Besides, the viability, T/C (compound 3.16 µM) is 29.7% and 26.2%. In addition, the viability, T/C (compound 10 µM) is 9.11% and 5.25%.
For the compound `Nc1ccn(C2OC(CO)C(O)C2(F)F)c(=O)n1` (stereo unspecified), the IC50 is under 0.0316 µM. For the same compound, the viability, T/C (compound 0.0316 µM) was 11% and 7.61%. The viability, T/C (compound 0.1 µM) was 8.58% and 9.53%. Under “compound 0.316 µM”, the viability, T/C is 8.12% and 7.99%. For the same compound, the viability, T/C (compound 1 µM) was 10.4% and 8.26%. For the same compound, the viability, T/C (compound 3.16 µM) was 9.96% and 7.45%. Besides, the viability, T/C (compound 10 µM) was 9.46% and 9.19%.
In the case of `O=C(c1cc(Cc2n[nH]c(=O)c3ccccc23)ccc1F)N1CCN(C(=O)C2CC2)CC1`, the IC50 was over 10 µM. The viability, T/C (compound 0.0316 µM) is 115% and 104%. Also, for the setting “compound 0.1 µM”, the viability, T/C was 95.9% and 101%. In addition, under “compound 0.316 µM”, the viability, T/C was 99.6% and 101%. Besides, the viability, T/C (compound 1 µM) was 101% and 99.2%. The viability, T/C (compound 3.16 µM) is 94.5% and 98.7%. Besides, the viability, T/C (compound 10 µM) is 71.1% and 77.5%.
Turning to `O=c1[nH]cc(F)c(=O)[nH]1`, the IC50 was 1.7 µM and 0.881 µM. The viability, T/C (compound 0.0316 µM) is 115% and 108%. In addition, the viability, T/C (compound 0.1 µM) was 98.1% and 101%. Moreover, the viability, T/C (compound 0.316 µM) was 95.8% and 103%. The viability, T/C (compound 1 µM) is 64.2% and 43.4%. Under “compound 3.16 µM”, the viability, T/C is 30.3% and 31.5%. The viability, T/C (compound 10 µM) is 35.5% and 36.6%.

(Values after PubChem BioAssay AID2060618 (Molecular Pharmacology Branch, DTP, NCI, 2025).)
